From patent publication US12338263B2, “Antibacterial aminoglycoside derivatives” (priority 2019, dated 2025)
Values after ≈ are worked out from the molar mass of the structure shown. Where two headings read alike, the source gives them in different places.

How the values were obtained:
Assay in all cases: Antibacterial effect (MIC), micro-liquid dilution method (CLSI)
Assay type in all cases: cell-based
E. coli ATCC 25922 = settings: Escherichia coli, ATCC25922
Protocol: (§1) Three strains Enterobacteriaceae E. coli ATCC 25922, E. coli ATCC BAA-2523, K. pneumonia ATCC BAA-1705 were used to determine the Minimum Inhibitory Concentration (MIC) of each compound by the micro-liquid dilution method according to the requirements of the Institute of Clinical and Laboratory Standard (CLSI). 2-fold series diluted compounds (with a final concentration range […]) were added to a round bottom 96-well plate (Catalog #3788, Corning). A single clone of fresh bacteria on the plate of Mueller Hinton II Agar (MHA, Cat. No. 211438, BD BBL™) after overnight culture was picked and suspended in sterile saline to adjust the concentration to 1×10^8 CFU/mL, and then diluted to 5×10^5 CFU/mL by Cation-Adjusted Mueller Hinton II Broth (MHB, Catalog #212332, BD BBL™), 100 μL of which was added to the round bottom 96-well plate containing the drug. The plate was inverted and incubated at 37° C. for 20-24 hours, and the MIC value was read. The lowest drug concentration that inhibits bacterial growth was defined as MIC.

E. coli ATCC BAA-2523 = settings: Escherichia coli, ATCCBAA2523
Protocol: as §1

[1] = test system: K. pneumoniae ATCC BAA-1705; settings: Klebsiella pneumoniae, ATCCBAA1705
Protocol: as §1

| Compound | MIC (E. coli ATCC 25922; E. coli ATCC 25922, 37° C., 20-24 hours, read-out: MIC) [µM] | MIC (E. coli ATCC BAA-2523; E. coli ATCC BAA-2523, 37° C., 20-24 hours, read-out: MIC) [µM] | MIC ([1]; K. pneumoniae ATCC BAA-1705, 37° C., 20-24 hours, read-out: MIC) [µM] | MIC (E. coli ATCC 25922) [µM] | MIC (E. coli ATCC BAA-2523) [µM] | MIC [1] [µM] |
| --- | --- | --- | --- | --- | --- | --- |
| CN[C@@H]1[C@@H](O)[C@@H](O[C@@H]2[C@@H](O)[C@H](O[C@H]3OC(CNCCOCCONC(=N)NCC(F)F)=CC[C@H]3N)[C@@H](N)C[C@H]2NC(=O)[C@@H](O)CCN)OC[C@]1(C)O [Compound 2] | 2 (≈ 1.52 µg/mL) | 4 (≈ 3.03 µg/mL) | 4 (≈ 3.03 µg/mL) | – | – | – |
| CN[C@@H]1[C@@H](O)[C@@H](O[C@@H]2[C@@H](O)[C@H](O[C@H]3OC(CNCCCONC(=N)N)=CC[C@H]3N)[C@@H](N)C[C@H]2NC(=O)[C@@H](O)CCN)OC[C@]1(C)O [Compound 3] | – | – | – | 0.5 (≈ 0.332 µg/mL) | 1 (≈ 0.664 µg/mL) | 0.25 (≈ 0.166 µg/mL) |
